Assay results published in patent EP3041353B1, “COMPOSITIONS COMPRISING BACTERIOSTATIC AGENTS AND BRILLIANT BLUE G” (priority 2013, dated 2015).

Experiments:
HCE-Zellen = type: cell-based, human
Description: Die Erfindung wird im Folgenden rein zu Veranschaulichungszwecken anhand der angehängten Figuren und von Ausführungsbeispielen näher erläutert. • Figur 1 Effekt von 0,025% BBG auf die Toxizität von unterschiedlichen Konzentrationen (in Gew.-%) von Benzalkoniumchlorid (BAK) auf HCE-Zellen (HCE = human corneal epithelium, Menschliche Hornhautepithelzellen) bei verschiedenen Einwirkdauern (5, 30, 60 min). Oben: BAK ohne BBG. Unten: BAK mit BBG. Inkubationsmedium: Phosphat-gepufferte Kochsalzlösung (PBS). • Figur 2 Effekt von BBG (in Gew.-%) in unterschiedlichen Konzentrationen auf die Toxizität von BAK bei 0,003% (oben) und 0,008% (unten). PBS = Phosphat-gepufferte Kochsalzlösung; BBS = balanced salt solution (ausgeglichene Salzlösung). • Figur 3 Effekt von BBG (0,025 Gew.-%) auf die Toxizität von Octenidindihydrochlorid (Oct) in unterschiedlichen Konzentrationen (in Gew.-%) nach 5 min Inkubation (oben) und 30 min Inkubation (unten). Octenidin alone = Octenidin allein (ohne BBG). • Figur 4 Effekt von BBG (0,025 %) auf die Toxizität von Cetylpyridiniumchlorid (CPC) in unterschiedlichen Konzentrationen (in Gew.-%) nach 5 min Inkubation (oben) und 30 min Inkubation (unten). CPC alone = Cetylpyridiniumchlorid allein (ohne BBG). • Figur 5 Effekt von BBG (0,025 %) auf die Toxizität von Chlorhexidin (CHex) in Form von Chlorhexidindigluconat in unterschiedlichen Konzentrationen (in Gew.-%) nach 5 min Inkubation (oben) und 30 min Inkubation (unten). Chlorhexidin alone = Chlorhexidin allein (ohne BBG)
Figur 1 zeigt die Wirkung von BBG 0,025% Gew.-% auf die Toxizität von unterschiedlichen Konzentrationen (in Gew.-%) von Benzalkoniumchlorid (BAK) auf HCE-Zellen (HCE = human corneal epithelium, Menschliche Hornhautepithelzellen) bei verschiedenen Einwirkdauern (5, 30, 60 min).
Figur 2 zeigt die Wirkung von BBG (in Gew.-%) in unterschiedlichen Konzentrationen und zwei unterschiedlichen Medien (PBS und BSS) auf die Toxizität von BAK bei 0,003% (oben) und 0,008% (unten) bei HCE-Zellen. Die Schutzwirkung von BBG bei niedrigeren BAK-Konzentrationen setzt schon bei 0,003% BBG ein. Bei höheren BAK-Konzentrationen sind 0,015% notwendig.
Figur 3 zeigt die Wirkung von BBG (0,025 Gew.-%) auf die Toxizität von Octenidin (Oct) Form von Octenidindihydrochlorid in unterschiedlichen Konzentrationen (in Gew.-%) nach 5 min Inkubation (oben) und 30 min Inkubation (unten). Octenidin alone = Octenidin allein (ohne BBG). […] BBG (0,025 Gew.-%) kann diesen Effekt bei 5 min Inkubation (links) bis zu einer Oct-Konzentration von 0,01% (der höchsten getesteten Konzentration) verhindern. Bei 30 min Einwirkzeit (rechts) ist erst ab 0,009 Gew.-% Oct der Schutz nicht mehr maximal.
Die Figuren 4 und 5 zeigen die Wirkung von BBG (0,025 Gew.-%) auf die Toxizität von Cetylpyridiniumchlorid (CPC, Fig. 4) und Chlorhexidin (CHex in Form von Chlorhexidindigluconat, Fig. 5) in unterschiedlichen Konzentrationen (in Gew.-%) nach 5 min Inkubation (jeweils oben) und 30 min Inkubation (jeweils unten).

Paenibacillus sp. = assay: Bacteriostatic effect of Octenidin with BBG: turbidity after 24 h incubation; type: cell-based; design: key: +: Bakterienwachstum nach 24 h Inkubation; -: kein Bakterienwachstum nach 24 h Inkubation; conditions: no BBG
Description: (§1) Zur Untersuchung des Einflusses von BBG auf die bakteriostatische Wirkung wurden Bakterien 24 h mit erfindungsgemäßen Zusammensetzungen, Benzalkoniumchlorid (BAK) und Octenidin (Oct) als Bakteriostatikum enthielten, inkubiert. Wenn sich die Inkubationsmischung trübte, wurde das als Bakterienwachstum interpretiert. Zum Vergleich wurde Brillantblau R (BBR) anstelle von BBG eingesetzt. Die Ergebnisse sind in den Tabellen 1-4 wiedergegeben. Tabelle 1: Einfluss von BBG und BBR auf die bakteriostatische Wirkung von BAK gegenüber Escherichia coli (E. coli), + = Bakterienwachstum nach 24 h Inkubation, - = kein Bakterienwachstum nach 24 h Inkubation, R = Brillantblau R (BBR), G = Brillantblau G (BBG).
(§2) Tabelle 4: Einfluss von BBG auf die bakteriostatische Wirkung von Octenidin (Oct) gegenüber Gram-positiven Bakterien., + = Bakterienwachstum nach 24 h Inkubation, - = kein Bakterienwachstum nach 24 h Inkubation, +/- = geringes Wachstum nach 24 h Inkubation, BBG = Brillantblau G.

Bacillus megaterium = assay: as above; type: cell-based; design: key: +: Bakterienwachstum nach 24 h Inkubation; -: kein Bakterienwachstum nach 24 h Inkubation; conditions: no BBG
Description: as §1, §2

Bacillus subtilis = assay: as above; type: cell-based; design: key: +: Bakterienwachstum nach 24 h Inkubation; -: kein Bakterienwachstum nach 24 h Inkubation; conditions: no BBG
Description: as §1, §2

[1] = tested on: Clavibacter michiganensis; assay: as above; type: cell-based; design: key: +: Bakterienwachstum nach 24 h Inkubation; -: kein Bakterienwachstum nach 24 h Inkubation; conditions: no BBG
Description: as §1, §2

[2] = tested on: Pseudomonas putida DSM 291; assay: as above; type: cell-based; design: key: +: Bakterienwachstum nach 24 h Inkubation; -: kein Bakterienwachstum nach 24 h Inkubation; conditions: no BBG
Description: as §1
(§3) Gram-negative Bakterien (hier E. coli) sind widerstandsfähiger als Gram-positive Bakterien (hier Bacillus sp.) und wachsen konzentrationsabhängig. […] Tabelle 3: Einfluss von BBG auf die bakteriostatische Wirkung von Octenidin (Oct) gegenüber Gram-negativen Bakterien., + = Bakterienwachstum nach 24 h Inkubation, - = kein Bakterienwachstum nach 24 h Inkubation, BBG = Brillantblau G.

Escherichia coli DH5α = assay: as above; type: cell-based; design: key: +: Bakterienwachstum nach 24 h Inkubation; -: kein Bakterienwachstum nach 24 h Inkubation; conditions: no BBG
Description: as §1, §3

Vibrio sp. Gal12 = assay: as above; type: cell-based; design: key: +: Bakterienwachstum nach 24 h Inkubation; -: kein Bakterienwachstum nach 24 h Inkubation; conditions: no BBG
Description: as §1, §3

Bacillus sp. = assay: Bacteriostatic effect of BAK with BBG/BBR: turbidity after 24 h incubation; type: cell-based; design: key to Bakterienwachstum nach 24 h Inkubation: +: Bakterienwachstum nach 24 h Inkubation; -: kein Bakterienwachstum nach 24 h Inkubation
Description: as §1
Tabelle 2: Einfluss von BBG und BBR auf die bakteriostatische Wirkung von BAK gegenüber Bacillus sp., + = Bakterienwachstum nach 24 h Inkubation, - = kein Bakterienwachstum nach 24 h Inkubation, R = Brillantblau R (BBR), G = Brillantblau G (BBG).

[3] = tested on: Escherichia coli (E. coli); assay: as above; type: cell-based; design: key to Bakterienwachstum nach 24 h Inkubation: +: Bakterienwachstum nach 24 h Inkubation; -: kein Bakterienwachstum nach 24 h Inkubation
Description: as §1

## CCCCCCCCN=c1ccn(CCCCCCCCCCn2ccc(=NCCCCCCCC)cc2)cc1 [Octenidin, reference compound]
HCE-Zellen
  Toxizität (Zellschädigung): stark zellschädigend
Paenibacillus sp.; Octenidin 0,01% alone
  Bakterienwachstum nach 24 h Inkubation: -
Paenibacillus sp.; Octenidin 0,002% alone
  Bakterienwachstum nach 24 h Inkubation: -
Paenibacillus sp.; Octenidin 0,003% alone
  Bakterienwachstum nach 24 h Inkubation: -
Paenibacillus sp.; Octenidin 0,005% alone
  Bakterienwachstum nach 24 h Inkubation: -
Paenibacillus sp.; Octenidin 0,007% alone
  Bakterienwachstum nach 24 h Inkubation: -
Paenibacillus sp.; Octenidin 0,009% alone
  Bakterienwachstum nach 24 h Inkubation: -
Bacillus megaterium; Octenidin 0,01% alone
  Bakterienwachstum nach 24 h Inkubation: -
Bacillus megaterium; Octenidin 0,002% alone
  Bakterienwachstum nach 24 h Inkubation: -
Bacillus megaterium; Octenidin 0,003% alone
  Bakterienwachstum nach 24 h Inkubation: -
Bacillus megaterium; Octenidin 0,005% alone
  Bakterienwachstum nach 24 h Inkubation: -
Bacillus megaterium; Octenidin 0,007% alone
  Bakterienwachstum nach 24 h Inkubation: -
Bacillus megaterium; Octenidin 0,009% alone
  Bakterienwachstum nach 24 h Inkubation: -
Bacillus subtilis; Octenidin 0,01% alone
  Bakterienwachstum nach 24 h Inkubation: -
Bacillus subtilis; Octenidin 0,002% alone
  Bakterienwachstum nach 24 h Inkubation: -
Bacillus subtilis; Octenidin 0,003% alone
  Bakterienwachstum nach 24 h Inkubation: -
Bacillus subtilis; Octenidin 0,005% alone
  Bakterienwachstum nach 24 h Inkubation: -
Bacillus subtilis; Octenidin 0,007% alone
  Bakterienwachstum nach 24 h Inkubation: -
Bacillus subtilis; Octenidin 0,009% alone
  Bakterienwachstum nach 24 h Inkubation: -
[1]; Octenidin 0,01% alone
  Bakterienwachstum nach 24 h Inkubation: -
[1]; Octenidin 0,002% alone
  Bakterienwachstum nach 24 h Inkubation: -
[1]; Octenidin 0,003% alone
  Bakterienwachstum nach 24 h Inkubation: -
[1]; Octenidin 0,005% alone
  Bakterienwachstum nach 24 h Inkubation: -
[1]; Octenidin 0,007% alone
  Bakterienwachstum nach 24 h Inkubation: -
[1]; Octenidin 0,009% alone
  Bakterienwachstum nach 24 h Inkubation: -
[2]; Octenidin 0,01% alone
  Bakterienwachstum nach 24 h Inkubation: -
[2]; Octenidin 0,002% alone
  Bakterienwachstum nach 24 h Inkubation: -
[2]; Octenidin 0,003% alone
  Bakterienwachstum nach 24 h Inkubation: -
[2]; Octenidin 0,005% alone
  Bakterienwachstum nach 24 h Inkubation: -
[2]; Octenidin 0,007% alone
  Bakterienwachstum nach 24 h Inkubation: -
[2]; Octenidin 0,009% alone
  Bakterienwachstum nach 24 h Inkubation: -
Escherichia coli DH5α; Octenidin 0,01% alone
  Bakterienwachstum nach 24 h Inkubation: -
Escherichia coli DH5α; Octenidin 0,002% alone
  Bakterienwachstum nach 24 h Inkubation: -
Escherichia coli DH5α; Octenidin 0,003% alone
  Bakterienwachstum nach 24 h Inkubation: -
Escherichia coli DH5α; Octenidin 0,005% alone
  Bakterienwachstum nach 24 h Inkubation: -
Escherichia coli DH5α; Octenidin 0,007% alone
  Bakterienwachstum nach 24 h Inkubation: -
Escherichia coli DH5α; Octenidin 0,009% alone
  Bakterienwachstum nach 24 h Inkubation: -
Vibrio sp. Gal12; Octenidin 0,01% alone
  Bakterienwachstum nach 24 h Inkubation: -
Vibrio sp. Gal12; Octenidin 0,002% alone
  Bakterienwachstum nach 24 h Inkubation: -
Vibrio sp. Gal12; Octenidin 0,003% alone
  Bakterienwachstum nach 24 h Inkubation: -
Vibrio sp. Gal12; Octenidin 0,005% alone
  Bakterienwachstum nach 24 h Inkubation: -
Vibrio sp. Gal12; Octenidin 0,007% alone
  Bakterienwachstum nach 24 h Inkubation: -
Vibrio sp. Gal12; Octenidin 0,009% alone
  Bakterienwachstum nach 24 h Inkubation: -

## Benzalkoniumchlorid [BAK]
Bacillus sp.; BAK 0.001% alone, no dye
  Bakterienwachstum nach 24 h Inkubation: -
[3]; BAK 0,01% alone, no dye
  Bakterienwachstum nach 24 h Inkubation: -
[3]; BAK 0,001 % alone, no dye
  Bakterienwachstum nach 24 h Inkubation: -

## Brillantblau R [BBR]
Bacillus sp.; 0.007% R + BAK 0.001%
  Bakterienwachstum nach 24 h Inkubation: -
Bacillus sp.; 0.007% R + BAK 0.01%
  Bakterienwachstum nach 24 h Inkubation: -
Bacillus sp.; 0.030% R, Kein BAK
  Bakterienwachstum nach 24 h Inkubation: +
Bacillus sp.; dye alone, no BAK (rechte Spalte, Tabelle 2)
  Einfluss auf das Bakterienwachstum: beeinflussen das Bakterienwachstum nicht
[3]; 0,007% R + BAK 0,01%
  Bakterienwachstum nach 24 h Inkubation: -
[3]; 0,007% R + BAK 0,001 %
  Bakterienwachstum nach 24 h Inkubation: +
[3]; 0,007% R + BAK 0,0016%
  Bakterienwachstum nach 24 h Inkubation: +
[3]; 0,007% R + BAK 0,0025%
  Bakterienwachstum nach 24 h Inkubation: -
[3]; 0,007% R + BAK 0,004%
  Bakterienwachstum nach 24 h Inkubation: -
[3]; 0,007% R + BAK 0,006%
  Bakterienwachstum nach 24 h Inkubation: -
[3]; 0,015% R + BAK 0,01%
  Bakterienwachstum nach 24 h Inkubation: -
[3]; 0,015% R + BAK 0,001 %
  Bakterienwachstum nach 24 h Inkubation: +
[3]; 0,015% R + BAK 0,0016%
  Bakterienwachstum nach 24 h Inkubation: +
[3]; 0,015% R + BAK 0,0025%
  Bakterienwachstum nach 24 h Inkubation: +
[3]; 0,015% R + BAK 0,004%
  Bakterienwachstum nach 24 h Inkubation: -
[3]; 0,015% R + BAK 0,006%
  Bakterienwachstum nach 24 h Inkubation: -
[3]; 0,030% R + BAK 0,01%
  Bakterienwachstum nach 24 h Inkubation: -
[3]; 0,030% R + BAK 0,001 %
  Bakterienwachstum nach 24 h Inkubation: +
[3]; 0,030% R + BAK 0,0016%
  Bakterienwachstum nach 24 h Inkubation: +
[3]; 0,030% R + BAK 0,0025%
  Bakterienwachstum nach 24 h Inkubation: +
[3]; 0,030% R + BAK 0,004%
  Bakterienwachstum nach 24 h Inkubation: +
[3]; 0,030% R + BAK 0,006%
  Bakterienwachstum nach 24 h Inkubation: +
[3]; 0,030% R, Kein BAK
  Bakterienwachstum nach 24 h Inkubation: +
[3]; Gram-negative Bakterien (E. coli), concentration dependent
  Einfluss auf die bakteriostatische Wirkung von BAK: hebt einen Teil der bakteriostatischen Wirkung auf
[3]; dye alone, no BAK (rechte Spalte, Tabelle 1)
  Einfluss auf das Bakterienwachstum: beeinflussen das Bakterienwachstum nicht
HCE-Zellen; dye given together with the bacteriostatic agent
  Schutzwirkung (zelltoxische Wirkung der Bakteriostatika bei gleichzeitiger Gabe): zeigte sich diese Schutzwirkung nicht
